The values below come from the supplement of paper PMC10307832.

Common to all, as to experiment: relative viability (nuclei count vs DMSO), 5 days (fraction); higher = more cells survive
Compound in assay [1]: C1COCCN1CC2=CC(=O)C(=CO2)OCCCCCSC3=C4C=CC(=CC4=NC=C3)C(F)(F)F [EHT 1864] + N=C(N)NC(=N)NCCc1ccccc1 [Phenformin] (partner 250 µM)
The procedure, abridged:
(§1)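 Lung cancer cell lines in 1536-well plates were dosed by pin tool the day after seeding, either with one drug alone or with a fixed anchor-drug dose plus five library-drug doses (not always all listed) in √10 steps. After 5 days, cells were fixed and their nuclei stained in one step (final 0.05% Triton X-100, 1% formaldehyde, 1 ug/ml Hoechst), then counted on 4× images. Relative viability is the nuclei count in treated wells divided by that in vehicle wells. Values are medians of duplicate plates.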

Compound in assay [2]: C1COCCN1CC2=CC(=O)C(=CO2)OCCCCCSC3=C4C=CC(=CC4=NC=C3)C(F)(F)F [EHT 1864] + Nc1nc2[nH]cc(CCc3ccc(C(=O)N[C@@H](CCC(=O)O)C(=O)O)cc3)c2c(=O)[nH]1 [Pemetrexed] (partner 0.2 µM)
The procedure, abridged:
as §1

Compound in assay [3]: C1COCCN1CC2=CC(=O)C(=CO2)OCCCCCSC3=C4C=CC(=CC4=NC=C3)C(F)(F)F [EHT 1864] + CC(=O)Nc1cccc(-n2c(=O)n(C3CC3)c(=O)c3c(Nc4ccc(I)cc4F)n(C)c(=O)c(C)c32)c1 [Trametinib] (partner 0.02 µM)
The procedure, abridged: as §1

Compound in assay [4]: C1COCCN1CC2=CC(=O)C(=CO2)OCCCCCSC3=C4C=CC(=CC4=NC=C3)C(F)(F)F [EHT 1864] + CC1(C)CCC(c2ccc(Cl)cc2)=C(CN2CCN(c3ccc(C(=O)NS(=O)(=O)c4ccc(N[C@H](CCN5CCOCC5)CSc5ccccc5)c(S(=O)(=O)C(F)(F)F)c4)cc3)CC2)C1 [Navitoclax] (partner 0.5 µM)
The procedure, abridged:
as §1

Take NCI-H650: the relative viability in assay [1] (first compound 0.04 µM) stood at 0.403; in assay [1] (first compound 0.1265 µM), 0.455; in assay [1] (first compound 0.4 µM) it was 0.48; in assay [1] (first compound 1.265 µM) it was 0.447; in assay [1] (first compound 4 µM), 0.459; in assay [2] (first compound 0.04 µM), 0.975. In addition, the relative viability in assay [2] (first compound 0.1265 µM) worked out at 0.75; in assay [2] (first compound 0.4 µM), 0.968; in assay [2] (first compound 1.265 µM), 0.947; in assay [2] (first compound 4 µM) it was 0.927; in assay [3] (first compound 0.04 µM) it was 0.995; in assay [3] (first compound 0.1265 µM) it was 0.92. Moreover, the values for the relative viability in assay [3] (first compound 0.4 µM), in assay [3] (first compound 1.265 µM) and in assay [3] (first compound 4 µM) were 0.898, 1.23 and 1.11, respectively.
Take NCI-H647: the relative viability was found to be 0.589 in assay [1] (first compound 0.04 µM); 0.432 in assay [1] (first compound 0.1265 µM); 0.561 in assay [1] (first compound 0.4 µM); 0.6 in assay [1] (first compound 1.265 µM); 0.545 in assay [1] (first compound 4 µM); 0.981 in assay [4] (first compound 0.04 µM). In addition, the relative viability in assay [4] (first compound 0.1265 µM) turned out to be 0.837; in assay [4] (first compound 0.4 µM), 1.17; in assay [4] (first compound 1.265 µM), 1.12; in assay [4] (first compound 4 µM) it was 1.05; in assay [2] (first compound 0.04 µM), 0.203; in assay [2] (first compound 0.1265 µM), 0.13. Moreover, the relative viability in assay [2] (first compound 0.4 µM) is 0.164; in assay [2] (first compound 1.265 µM) it was 0.157; in assay [2] (first compound 4 µM) it was 0.177; in assay [3] (first compound 0.04 µM), 0.437; in assay [3] (first compound 0.1265 µM), 0.353; in assay [3] (first compound 0.4 µM) it was 0.604. Also, the relative viability was determined as 0.429 in assay [3] (first compound 1.265 µM) and 0.464 in assay [3] (first compound 4 µM).
Consider 201T, for which the relative viability is 0.471 in assay [1] (first compound 0.04 µM); 0.423 in assay [1] (first compound 0.1265 µM); 0.434 in assay [1] (first compound 0.4 µM); 0.483 in assay [1] (first compound 1.265 µM); 0.445 in assay [1] (first compound 4 µM); 1.27 in assay [4] (first compound 0.04 µM). The relative viability in assay [4] (first compound 0.1265 µM) is 1.2; in assay [4] (first compound 0.4 µM) it was 1.22; in assay [4] (first compound 1.265 µM) it was 1.15; in assay [4] (first compound 4 µM), 1.16; in assay [2] (first compound 0.04 µM), 0.346; in assay [2] (first compound 0.1265 µM) it was 0.326. For the same cell line, the relative viability in assay [2] (first compound 0.4 µM) was determined as 0.351; in assay [2] (first compound 1.265 µM), 0.266; in assay [2] (first compound 4 µM), 0.291; in assay [3] (first compound 0.04 µM), 0.702; in assay [3] (first compound 0.1265 µM) it was 0.707; in assay [3] (first compound 0.4 µM), 0.681. Besides, the values for the relative viability in assay [3] (first compound 1.265 µM) and in assay [3] (first compound 4 µM) were 0.693 and 0.605, respectively.
For the cell line NCI-H838, the relative viability was determined as 0.558 in assay [1] (first compound 0.04 µM); 0.513 in assay [1] (first compound 0.1265 µM); 0.638 in assay [1] (first compound 0.4 µM); 0.697 in assay [1] (first compound 1.265 µM); 0.588 in assay [1] (first compound 4 µM); 1.08 in assay [4] (first compound 0.04 µM). The relative viability in assay [4] (first compound 0.1265 µM) came out at 1.04; in assay [4] (first compound 0.4 µM) it was 1.14; in assay [4] (first compound 1.265 µM) it was 1.08; in assay [4] (first compound 4 µM) it was 1.14; in assay [2] (first compound 0.04 µM), 0.249; in assay [2] (first compound 0.1265 µM) it was 0.236. Moreover, the relative viability amounted to 0.236 in assay [2] (first compound 0.4 µM); 0.233 in assay [2] (first compound 1.265 µM); 0.219 in assay [2] (first compound 4 µM); 0.5 in assay [3] (first compound 0.04 µM); 0.466 in assay [3] (first compound 0.1265 µM); 0.553 in assay [3] (first compound 0.4 µM). Moreover, the relative viability in assay [3] (first compound 1.265 µM) was 0.514; in assay [3] (first compound 4 µM), 0.536.
